Test results as given in patent US12390441B2, “Immunomodulating o-het/aryl azalides” (Zoetis Services LLC, priority 2020, dated 2025).
“Also recorded” adds a separate entry of the source.

Tests used:
[1] = PK study, plasma concentration; conditions: 10 mg/kg dose
CD163 = CD163 expression by flow cytometry, blood of treated cattle; conditions: monocytes/macrophages
[2] = system: M. haemolytica (OSU-012103-BHI); conditions: 10 mg/kg
SLAMF9 = SLAMF9 (Bos taurus, UniProt E1BNF9); assay: Surface plasmon resonance (SPR), KD; format: binding; conditions: biologically relevant pH
From the text: (§1) In order to add further clarity to binding partner identification, surface plasma resonance (SPR) technology was used. […] These targets were unique to this drug as compared to gamithromycin, a macrolide antibiotic used in the treatment of BRD. Both targets fit the paradigm that the immunological mechanism of action is linked to the pathways that are both of key importance as being dysregulated in BRD and modulated by M9. LCN2 is expressed by neutrophils upon activation of toll-like receptors (TLRs) and is a component of the innate inflammatory response. […] Very little information exists to date on SLAMF9. It is a member of a family of signal adaptor proteins that is thought to lack signal transduction capabilities.
(§2) KD is the equilibrium dissociation constant that was used to present the drug/target affinity. The identified targets associated with drug were measured by surface plasmon resonance (SPR) to define the KD.

LCN2 = target: T1, LCN2 (Bos taurus, UniProt A0AAA9TIZ6); assay: Surface plasmon resonance (SPR), KD; format: binding; conditions: biologically relevant pH
T1 sequence (A0AAA9TIZ6 1-200): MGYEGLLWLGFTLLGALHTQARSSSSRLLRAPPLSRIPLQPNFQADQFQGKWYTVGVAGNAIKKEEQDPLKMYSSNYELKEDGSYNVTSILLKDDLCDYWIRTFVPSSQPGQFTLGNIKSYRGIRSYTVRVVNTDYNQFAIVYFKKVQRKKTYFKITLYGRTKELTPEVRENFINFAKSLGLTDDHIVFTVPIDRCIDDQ
From the text: as §1, §2

upstream regulators = assay: Lung tissue RNA sequence analysis, ingenuity pathway analysis; format: in vivo, mice; conditions: M9 32 mg/kg (T03)
Procedure: In one murine P. multocida intranasal challenge study, mice were administered tulathromycin (16 mg/kg; T02), M9 (32 mg/kg; T03), or ceftiofur (9 mg/kg; T04) by subcutaneous injection 18 hours after bacterial challenge (5×10^3 CFU/mouse) for lung tissue RNA sequence analysis. […] Data was analyzed based on the number of genes being modulated in the same direction that were associated with a given upstream regulator. An activation z-score of 2 or greater is considered significant and the direction change is indicated by +(activated) or −(inhibited).

IL-1β = assay: Whole blood assay, LPS stimulation, MSD cytokine detection; format: cell-based, bovine; conditions: top dose 500 μM; cellular toxicity signal
natural BRD infection = assay: Natural bovine respiratory disease study; format: in vivo, beef calves; conditions: 14-day observation
Procedure: The primary clinical endpoint for efficacy was treatment failure/success over a 14-day observation period. Clinically normal beef calves (150-200 kg) at moderate risk for BRD were dosed on arrival to the feedlot. Animals (N=114/group) received saline (T01), 5 mg/kg M9 (T02) or 10 mg/kg M9 (T03); or Zactran (T04). […] Bacterial isolates were collected at necropsy and MICs were evaluated (Table 4).

IL-6 = assay: Plasma IL-6 biomarker in bovine M. haemolytica challenge
TNF-α = assay: Whole blood assay, LPS stimulation, MSD cytokine detection; format: cell-based; conditions: Bos taurus, fresh whole bovine blood
P. multocida = assay: Murine P. multocida intranasal challenge study, survival; format: in vivo, mice; conditions: 5×10^3 CFU/mouse; subcutaneous 18 hours after challenge; tulathromycin 16 mg/kg, M9 32 mg/kg, ceftiofur 9 mg/kg
[3] = system: Bovine primary cells (PBMCs, PMN/neutrophils) and tissue (trachea, lung) protein homogenates; assay: Binding partner identification (NPOT, mass spectrometry); conditions: as compared to gamithromycin
Procedure: To further characterize the direct activity of the compounds of the invention, experiments to identify the drug's direct binding host partners(s) were performed with the aim of identifying the potential biological targets. Bovine primary cells (peripheral blood mononuclear cells [PBMCs] and polymorphonuclear cells [PMN/neutrophils]) and tissue (trachea, lung) protein homogenates were mixed with M9 and the macrolide, gamithromicin as a comparator. Tissue interactions were allowed to form using a heterogeneous assembly method (nematic protein organization technique, NPOT; Inoviem Scientific); and traditional western blots to identify native-structure proteins bound to the compound. Mass spectrometry analysis identified eight proteins involved in the interaction with M9 as compared to gamithromycin. The antibacterial macrolide gamithromycin was used as a comparator to differentiate specific binding to M9. These proteins were considered to be either direct binding partners of the drug or closely involved in the drug:target interaction (Table 6).

Sequence of SLAMF9 (E1BNF9 1-289): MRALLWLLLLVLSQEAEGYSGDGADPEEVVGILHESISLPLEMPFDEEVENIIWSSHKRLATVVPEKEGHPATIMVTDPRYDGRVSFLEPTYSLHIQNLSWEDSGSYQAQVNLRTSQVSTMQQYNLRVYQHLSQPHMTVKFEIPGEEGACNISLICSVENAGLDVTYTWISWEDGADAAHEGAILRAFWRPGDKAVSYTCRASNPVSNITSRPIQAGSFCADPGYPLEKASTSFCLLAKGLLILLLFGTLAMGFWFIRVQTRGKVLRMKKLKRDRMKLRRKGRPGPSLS

## CCCNC[C@]1(O)[C@H](C)O[C@@H](O[C@H]2[C@H](C)[C@@H](O[C@@H]3O[C@H](C)C[C@H](NC)[C@H]3O)[C@](C)(O)C[C@@H](C)CN[C@H](C)[C@@H](O)[C@](C)(O)[C@@H](CC)OC(=O)[C@@H]2C)C[C@@]1(C)OC [Example M9, (2R,3S,4R,5R,8R,10R,11R,12S,13S,14R)-2-ethyl-3,4,10-trihydroxy-13-(((2R,4R,5S,6S)-5-hydroxy-4-methoxy-4,6-dimethyl-5-((propylamino)methyl)-tetrahydro-2H-pyran-2-yl)oxy)-11-(((2S,3R,4S,6R)-3-hydroxy-6-methyl-4-(methylamino)tetrahydro-2H-pyran-2-yl)oxy)-3,5,8,10,12,14-hexamethyl-1-oxa-6-azacyclopentadecan-15-one]
[1]
  maximum plasma concentration: 5 µg/mL
CD163
  CD163 expression: suppressed; also recorded: mitigates the pathologic increase
[2]; inhaled or nasal
  lung lesion scores: 29
[2]; separate study, vs. saline 38.9%
  mortality: 13%
SLAMF9
  drug/target binding, SLAMF9: direct binding targets
LCN2
  drug/target binding, LCN2: direct binding targets
Upstream regulators
  activation z-score, IFNγ: −5.759
  activation z-score, IL-1β: −5.947
  activation z-score, STAT1: −2.787
  activation z-score, TNF: −4.669
  activation z-score, lipopolysaccharide: −6.725
  activation z-score, poly rl:rC-RNA: −5.289
Upstream regulators; total lung tissue
  unique genes up or down regulated (with significance): at least 226
IL-1β
  overstimulation of IL-1B: > 500 µM
Natural BRD infection; 5 mg/kg (T02)
  Percent failure (treatment failure): 19.3%
Natural BRD infection; 10 mg/kg (T03)
  Percent failure (treatment failure): 8.8%
IL-6
  IL-6 levels: significantly reduced
TNF-α
  IC50: 250 µM
P. multocida
  Survival at Day 7: ~50%
[3]
  proteins involved in the interaction: eight
